Data set [1] relates to LoVo. In words: Antiproliferative activity against ATM deficient human LoVo cells incubated for 72 hrs by CCK8 assay. The format is functional, cell-based. On the technique in general: Tetrazolium dyes change colour on reduction, which living cells bring about.
Data set [2] can be described thus: AUC (0 to infinity) in BALB/c nude mouse xenografted with human LoVo cells at 25 mg/kg, ip administered as single dose and measured after 12 hrs by LC-MS/MS analysis. Type of data set: ADME, organism-based. The following applies: in vivo. Background: A xenograft is tissue or cells of one species grown in another, often human tumour cells in immunodeficient mice.

The target of data set [3] is DNA-dependent protein kinase catalytic subunit (Homo sapiens) (UniProt P78527). The experiment in a line: Induction of DNA-PK degradation in human LoVo cells at 0.16 to 10 uM incubated for 72 hrs by Western blot analysis. The format is cell-based. The following applies: dose 0.16-10 µM.
Data set [4] in a line: MRT (0 to infinity) in BALB/c nude mouse xenografted with human LoVo cells at 25 mg/kg, ip administered as single dose and measured after 12 hrs by LC-MS/MS analysis. Type of data set: ADME, organism-based. The following applies: in vivo.
The test system of data set [5] is LoVo. The experiment in a line: Antitumor activity against human LoVo cells xenografted in BALB/c nude mouse assessed as tumor growth inhibition at 25 mg/kg, ip administered […] for 15 days relative to control. Type of data set: functional. The following applies: 360 h, time 15 day, read-out: TGI.
The test system of a further data set is Mus musculus. In words: Effect on CHK1 protein expression in BALB/c nude mouse xenografted with human LoVo cells at 12.5 to 25 mg/kg, ip administered once daily for 15 days by Western blot analysis. Type of data set: functional, organism-based. The following applies: dose 12.5-25 mg/kg, time 15.0 day.
Data set [6] concerns the target T1, Protein cereblon/Serine/threonine-protein kinase ATR (Homo sapiens, UniProt Q13535+Q96SW2). The experiment in a line: PROTAC activity at CRBN/ATR in human LoVo cells assessed as increase in ATR-CRBN protein-protein interaction by co-immunoprecipitation analysis. Type of data set: cell-based.
For data set [7], the target named is Serine/threonine-protein kinase ATR (Homo sapiens, UniProt Q13535). In words: Inhibition of ATR (unknown origin).
The nature of data set [8]: Toxicity in BALB/c nude mouse xenografted with human LoVo cells assessed as effect on liver at 12.5 to 25 mg/kg, ip administered twice daily for 15 days by H and E staining based analysis. The following applies: in vivo, 360 h, dose 12.5-25 mg/kg, time 15 day. The format is organism-based.
The nature of data set [9]: Toxicity in BALB/c nude mouse xenografted with human LoVo cells assessed as effect on kidney at 12.5 to 25 mg/kg, ip administered twice daily for 15 days by H and E staining based analysis. The format is organism-based. The following applies: in vivo, 360 h, dose 12.5-25 mg/kg, time 15 day.
In data set [10] the target is T2, ATPase family gene 2 protein homolog B (Homo sapiens) (UniProt Q9BVQ7).
T2 sequence (whole entry): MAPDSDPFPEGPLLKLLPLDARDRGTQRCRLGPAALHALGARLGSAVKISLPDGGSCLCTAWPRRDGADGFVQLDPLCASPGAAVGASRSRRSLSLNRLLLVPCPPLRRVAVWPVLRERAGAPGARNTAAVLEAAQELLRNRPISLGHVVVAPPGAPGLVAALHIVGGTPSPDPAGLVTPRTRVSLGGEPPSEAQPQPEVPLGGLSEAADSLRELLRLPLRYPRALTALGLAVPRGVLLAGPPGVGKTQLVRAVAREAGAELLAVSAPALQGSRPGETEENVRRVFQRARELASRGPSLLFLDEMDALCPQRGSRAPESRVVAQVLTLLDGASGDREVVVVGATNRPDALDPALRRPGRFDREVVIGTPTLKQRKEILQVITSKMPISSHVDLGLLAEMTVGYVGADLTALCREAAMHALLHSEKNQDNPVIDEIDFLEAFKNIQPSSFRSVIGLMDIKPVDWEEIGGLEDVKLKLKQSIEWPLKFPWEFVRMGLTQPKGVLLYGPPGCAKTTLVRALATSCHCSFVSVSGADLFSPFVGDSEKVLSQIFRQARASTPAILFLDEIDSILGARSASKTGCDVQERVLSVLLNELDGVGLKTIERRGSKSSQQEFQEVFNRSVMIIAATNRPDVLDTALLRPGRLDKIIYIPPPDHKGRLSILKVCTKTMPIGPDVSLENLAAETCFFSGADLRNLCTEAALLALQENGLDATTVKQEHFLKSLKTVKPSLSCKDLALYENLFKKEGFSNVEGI
In words: Induction of SPATA5L1 degradation in human LoVo cells at 1 uM incubated for 24 hrs by global proteomic profiling analysis. The format is cell-based.

In data set [11] the test system is LoVo. In words: Cell cycle arrest in human LoVo cells assessed as accumulation of cells at S phase at 0.5 uM incubated for 72 hrs by PI staining based flow cytometric analysis (reference value: 25.5 %). Type of data set: functional. For orientation: A flow cytometer gives signals particle by particle.
Data set [12] is described as follows: Toxicity in BALB/c nude mouse xenografted with human LoVo cells assessed as effect on heart at 12.5 to 25 mg/kg, ip administered twice daily for 15 days by H and E staining based analysis. The following applies: in vivo, 360 h, dose 12.5-25 mg/kg, time 15 day. The format is organism-based.
Data set [13] deals with T1, Protein cereblon/Serine/threonine-protein kinase ATR. In words: In vivo PROTAC activity at CRBN/ATR in BALB/c nude mouse xenografted with human LoVo cells assessed as reduction in CHK1 phosphorylation at Ser345 residue administered intraperitoneally once daily for 15 days by Western blot analysis. The format is functional, organism-based. The following applies: dose 12.5-25 mg/kg, route ip, time 15.0 day.

Data set [14] in a line: Toxicity in BALB/c nude mouse xenografted with human LoVo cells assessed as effect on lung at 12.5 to 25 mg/kg, ip administered twice daily for 15 days by H and E staining based analysis. The following applies: in vivo, 360 h, dose 12.5-25 mg/kg, time 15 day. Type of data set: organism-based.
Data set [15] deals with LoVo. The experiment in a line: Antitumor activity against human LoVo cells xenografted in BALB/c nude mouse assessed as tumor growth inhibition at 12.5 mg/kg, ip administered […] for 15 days relative to control. Type of data set: functional. The following applies: 360 h, time 15 day, read-out: TGI.
Data set [16] relates to LoVo. In words: Induction of SIPA1L1 degradation in human LoVo cells at 1 uM incubated for 24 hrs by global proteomic profiling analysis. The format is cell-based.
Data set [17] in a line: Toxicity in BALB/c nude mouse xenografted with human LoVo cells assessed as effect on spleen at 12.5 to 25 mg/kg, ip administered twice daily for 15 days by H and E staining based analysis. The format is organism-based. The following applies: in vivo, 360 h, dose 12.5-25 mg/kg, time 15 day.
For data set [18], the target named is T1, Protein cereblon/Serine/threonine-protein kinase ATR. The experiment in a line: PROTAC activity at CRBN/ATR in human LoVo cells assessed as induction of ATR degradation at 2.5 uM incubated for 4 hrs by Western blot analysis. Type of data set: cell-based.
A further data set has as its system HCT-116. The experiment in a line: Antiproliferative activity against human HCT-116 cells expressing wildtype ATM incubated for 72 hrs by CCK8 assay. Type of data set: functional, cell-based. The following applies: HCT-116, 72 h.
The subject of data set [19] is LoVo. In words: Antitumor activity against human LoVo cells xenografted in BALB/c nude mouse assessed as induction of DNA damage by measuring increase in gammaH2AX protein level. Type of data set: functional, cell-based.

Each structure is given as a SMILES string. Activity calls are given as the source filed them. The rule behind the calls is not given here.

One may read the IC50 as the midpoint of a concentration-inhibition curve. A high value points to weaker potency in that assay. As a reminder, the AUC(0-inf) is total exposure, with the tail of the curve extrapolated. Lower therefore signals low exposure. The MRT inf is a mean duration of stay, worked out from the concentration-time curve. Turning to `C[C@@H]1COCCN1c1cc(C2([S@@](C)(=O)=NC(=O)CCc3cn(CCCCCCCC(=O)Nc4cccc5c4C(=O)N(C4CCC(=O)NC4=O)C5=O)nn3)CC2)nc(-c2ccnc3[nH]ccc23)n1` (stereo partly specified), the IC50 in the data set on LoVo [1] was 470 nM; in the data set with HCT-116, 5100 nM. Moreover, the total exposure AUC(0-inf) in [2] was 4070 ng·h/mL. The result (in [3]; in the data set with Mus musculus) was inactive. In data set [4], this molecule showed a mean residence time MRT inf of 4.65 h. In the data set on LoVo [5], the inhibition in vivo at 25 mg/kg stood at 51.8%. Further, the outcome (in [6]; in data set [10]; in the data set on LoVo [16]; in data set [18]; in the data set on LoVo [19]) was Active. Further, the inhibition entry in data set [7] was “Active”. The Activity entry in data set [8] is “Non-Toxic”; in data set [9], “Non-Toxic”; in the data set with LoVo [11], 22.4%; in data set [12], “Non-Toxic”; in data set [13], “Dose-Dependent Effect”; in data set [14], “Non-Toxic”. Moreover, the Activity entry in data set [17] was “Non-Toxic”. In addition, the inhibition in vivo at 12.5 mg/kg in the data set on LoVo [15] stood at 39.5%.

These data come from ChEMBL document CHEMBL5576037, “Discovery of the first ataxia telangiectasia and Rad3-related (ATR) degraders for cancer treatment” (Eur J Med Chem, 2024).
